In series [1] the test system is PANC-1. Description: CellTiterGlo cell viability, PANC-1 cells. It is filed as cell-based. The following applies: Homo sapiens, 72 h. The method, then: The IC50 values for (R)-H4CBD, (S)-H4CBD, H4CBDV racemic mixture, and bortezomib were determined. Compound treatment of cells started one day after seeding with a final DMSO concentration of 0.1% and was performed by nanodrop-dispensing using a Tecan Dispenser. 0.1% DMSO (solvent) and Staurosporine (1,0E-05M) served as high control (100% viability) and low control (0% viability), respectively. For the assays, cells were seeded in white cell culture-treated flat and clear bottom multiwell plates and incubated at 37° C. overnight before compounds were added. After incubation for 72 h at 37° C. at 5% or 10% CO2 dependent on the medium, cell plates were equilibrated to room temperature for one hour, CellTiterGlo reagent (Promega) was added and luminescence was measured approximately an hour later using a luminometer.
Raw data were converted into percent cell viability relative to the high and low control, which were set to 100% and 0%, respectively. IC50 calculation was performed using GraphPad Prism software with a variable slope sigmoidal response fitting model using 0% viability as bottom constraint and 100% viability as top constraint. IC50 results in PANC-1, MIA-PaCa2, and AsPC-1 cells for (R)-H4CBD, (S)-H4CBD, H4CBDV racemic mixture, and bortezomib are shown in FIGS. 10-12 and Table 2
Background: ATP-based viability assays read luminescence as a measure of living cells.

The test system of series [2] is MiaPaca cells xenograft. Description: Miapaca cell xenograft study. The series is classed as in vivo, SCID mice. The method, then: Animal housing and environment: Female SCID mice will be housed in individually ventilated cages in a controlled environment (temperature 22±2° C., humidity 30-70%, and 12 h light/12 h dark cycle). Acclimatization of animals: Mice will be acclimated for 2-4 days. For the study, the required number of SCID mice will be allocated and housed separately in the experimental area. Food and water for animals: The mice will have access to commercially available sterile feed pellets and sterile potable water ad libitum. Identification of animals: 4 mice will be housed per individually ventilated cage. Each animal in the cage will be identified by ear punch. These cages will be numbered thus making the animal identification easy. Ethical approvals: All animal experiments will be carried out in accordance with the guidelines of the guide for animal welfare and with the approval of the IACUC WSU. Population per group: 9 mice per group (6 for efficacy and 3 for residual tumor analysis).
Miapaca cells were xenograft into the mice. 7 days after transplantation, the mice were untreated (administered a vehicle control), administered CCL-104 intravenously (15.4 mg/kg) or orally (31 mg/kg), or administered CCL-106, intravenously (20 mg/kg) or orally (31 mg/kg). At necropsy, tumors were excised for IHC, immunoblotting and RNA isolation for suppression proliferation related signaling molecules.

A short description of series [3]: Potential maximum tolerated dosages in mice. The series is classed as in vivo. On the procedure:
To determine potential maximum tolerated dosages, 3.12, 6.25, 10, and 12.5 mg/kg of CCL-106, for 2, 2, 1, and 1 doses respectively, were administered to mice. […] Mice were administered high doses of CCL-104 and CCL-106.

Each structure is given as a SMILES string.

One may read the IC50 as the concentration that inhibits the measured activity by half. Compound `CCCc1cc(O)c(C2CC(C)CCC2C(C)C)c(O)c1` (racemic) [CCL-106, hexahydrocannabidivarin] displayed an IC50 in series [1] of 789 nM. In addition, the “reduction of final tumor weight (dot graph)” value in series [2] (IV 20 mg/kg) was 27.0%; in series [2] (PO 31 mg/kg) it was 50.8%. For the same compound, the “reduction of mean of the final tumor weight (bar graph)” value in series [2] (IV 20 mg/kg) is 24.2%; in series [2] (PO 31 mg/kg), 50.79%. In addition, the “tumor size compared to the untreated control” value in series [2] (treated intravenously or orally, FIGS. 54-55) was “smaller tumors compared to the untreated control”. Also, the toxicity observed result in series [3] (12.5 mg/kg, mouse) is “acute toxicity for CCL-106 (strong tremors and weight loss)”; in series [3] (15.63 mg/kg dose at each of days 5, 6, and 7, mouse), “seizure like symptoms but recovered more quickly (around 30 minutes)”; in series [3] (31.25 mg/kg dose, mouse), “stop moving after about 2 minutes and have seizure like symptoms”; in series [3] (39.06 mg/kg dose, mouse) it was “killed a mouse immediately”; in series [3] (46.87 mg/kg dose, mouse), “killed a mouse immediately”; in series [3] (3.12, 6.25, and 10 mg/kg dose, mice) it was “No toxicity was observed”. In addition, the tail vein toxicity entry in series [3] (daily 31.25 mg/kg doses, mouse) is recorded as “displayed tail vein toxicity on day 2”.
